The results in this text go back to patent publication US12391701B2, “Chromene-based compounds, methods and uses thereof” (University of Minho, priority 2019, dated 2025).

Assay [1] concerns Caki-2 parental cells. Briefly: BrdU proliferation assay, Caki-2 parental. It counts as cell-based. Particulars: 24 and 48 hours, IC50 and ½IC50.
Assay [2] relates to glioma cell line U87. The assay can be described thus: Cell viability MTS assay, U87. Conditions: Homo sapiens, 72 hours. It counts as cell-based. How it is done: (§1) In an embodiment, the antiproliferative activity of compounds MC408, MC409, MC421 and MC406 was further determined against glioma cell lines (U87, GAMG and GL18) and acute leukemia cell lines (HL-60, KG-1 and Jurkat). This was done in order to evaluate if the compounds presented an equally interesting anticancer profile in other cancer cell models. Cell viability was determined using the MTS assay, after exposure of the cells to the respective compounds for 72 hours at appropriate concentration ranges to determine the respective IC50 values.
(§2) In an embodiment, three human breast cancer cell lines Hs578T, MDA-MB-468 and MCF-7, and a normal breast cell line MCF-10A, were obtained from ATCC (American Type Culture Collection). The cancer cell lines were cultured in Dulbecco's modified Eagle medium, 4.5 g/l glucose (DMEM, Gibco) supplemented with 10% heating inactivated Fetal Bovine Serum (FBS, Gibco) and 1% antibiotic solution (Penicillin-Streptomycin, Gibco). The normal cell line was cultured in Dulbecco's Modified Eagle Medium: Nutrient Mixture F-12 (DMEM/F12, Gibco) supplemented with 5% heating inactivated FBS (Gibco), 1% antibiotic solution (Penicillin-Streptomycin, Gibco), 1% steroid hormone (Hydrocortisone, Sigma-Aldrich), 0.1% peptide hormone (Insulin, Sigma-Aldrich) and 0.01% protein complex (Cholera Toxin, Gibco). Two distinct human acute myeloid leukemia (AML) cell lines, HL-60 (FAB M2) and KG-1 (erythroleukemia-FAB M6), and one human lymphoblastic leukemia (ALL) cell line, Jurkat (T cell type), were also used. These three cell lines were obtained from German Collection of Microorganisms and Cell cultures (DMSZ®, Deutsche Sammlung von Mikroorganismen and Zellkulturen in German). Cells were cultured in RPMI 1640 medium (Biochrom®-Merck Millipore) supplemented with 10% heating inactivated FBS (Biochrom®-Merck Millipore) and 1% antibiotic/antimitotic mixture (Invitrogen®). Three human glioblastoma (GBM) cell line models, two established and commercially available cell lines (U87MG and GAMG, kind gift from Rui M. Reis) and one primary GBM culture (GLIB) were also used. GBM cells were cultures in DMEM (Biochrom-Merck Millipore), all supplemented with 10% FBS. The Renal cell carcinoma cell lines A498, 786-O, Caki-2 and HK2 were obtained from ATCC. The cancer cell line A498 was cultured in MEM medium (Biochrom®-Merck Millipore), 786-O was cultured in RPMI 1640 medium (Biochrom®-Merck Millipore), Caki-2 was cultured in Mc Coys medium (Biochrom®-Merck Millipore) and HK2 was cultured in RPMI 1640 medium (Biochrom®-Merck Millipore). All the media were supplemented with 10% heat inactivated FBS (Biochrom®-Merck Millipore) and 1% antibiotic/antimitotic mixture (Invitrogen®). All cells were grown in a humidified incubator at 37° C. and 5% CO2. […]

Assay [3] relates to glioma cell line GAMG. The assay can be described thus: Cell viability MTS assay, GAMG. It is filed as cell-based. Conditions: Homo sapiens, 72 hours. How it is done:
as §1
as §2, with “used.” for “used. GBM cells were cultures in DMEM (Biochrom-Merck Millipore), all supplemented with 10% FBS. The Renal cell carcinoma cell lines A498, 786-O, Caki-2 and HK2 were obtained from ATCC. The cancer cell line A498 was cultured in MEM medium (Biochrom®-Merck Millipore), 786-O was cultured in RPMI 1640 medium (Biochrom®-Merck Millipore), Caki-2 was cultured in Mc Coys medium (Biochrom®-Merck Millipore) and HK2 was cultured in RPMI 1640 medium (Biochrom®-Merck Millipore). All the media were supplemented with 10% heat inactivated FBS (Biochrom®-Merck Millipore) and 1% antibiotic/antimitotic mixture (Invitrogen®). All cells were grown in a humidified incubator at 37° C. and 5% CO2.”
Background: Tetrazolium assays rely on reduction of a dye to a coloured formazan, in cell work by metabolically active cells.

The test system of assay [4] is glioma cell line GL18. The assay can be described thus: Cell viability MTS assay, GL18. It is filed as cell-based. Particulars: Homo sapiens, 72 hours. How it is done: as §1, §2
Assay [5] concerns MCF-7 cells. Briefly: Wound-healing assay, MCF-7 cell migration. It counts as cell-based, human. Particulars: for cell migration less than the control: after 72 hours of treatment, IC50 (and ½IC50) concentration. How it is done:
In an embodiment, the effect of the four selected compounds (MC408, MC409, MC406 and MC421) was further evaluated on cell migration (FIG. 1). MCF-7 cells were treated with the respective IC50 and half of the IC50 values for 72 hours and the wound-healing assay was performed. Half of the IC50 concentration was used for each compound to evaluate concentration-dependent effects. […] Results are presented as mean±SD of at least three independent experiments, *p<0.05; **p<0.01; ***p<0.001; ****p<0.0001 compared to control (DMSO, 0.5%).
In an embodiment, cell migration was assessed by the wound-healing assay that mimics the process of cell migration during wound-healing in vivo. This method is based on making a scratch, simulating a wound in a cell monolayer, capturing the images at the beginning and regular intervals during cell migration process to close the wound and comparing the images to quantify the cell migration rate. MCF-7 and Caki-2 cells were plated in 6-well plates at a density of 9.0×10^5 and 3.0×10^5 per 2 mL, respectively, and grown overnight at 37° C. in a 5% CO2 humidified atmosphere. A 200 μL pipette tip was used to make two scratches in a layer of confluent cells. Cells were gently washed once with 500 μL of PBS. MCF-7 cells were treated with compounds at the respective IC50, ½IC50, or 0.5% DMSO (control), for 72 hours. At 0, 12, 24, 48 and 72 hours, specific wound sites (four positions for each wound) were photographed. […] Images were captured at 100× magnification using an Olympus IX51 inverted microscope equipped with an Olympus DP20 Digital Camera System. Assessment of five migration distances was performed using BeWound 1.7.1 and the percentage of cell migration normalized to the control was plotted using GraphPad Prism 6 software. Three independent experiments were performed for each compound. The significance of the difference between different groups was determined with Student t-test.

The subject of assay [6] is A498 parental cells. Briefly: BrdU proliferation assay, A498 parental. Conditions: 24 and 48 hours, IC50 and ½IC50. It counts as cell-based.

The term IC50 denotes the concentration that gives 50% inhibition.

As to `COc1cccc2c1Oc1nc(-c3ccccc3)[nH]c1C2` [MC350, 5-methoxy-2-phenyl-3,9-dihydrochromeno[2,3-d]imidazoles], in assay [1], the “effect on cell proliferation (BrdU)” value was “decrease cell proliferation”.

As for `COc1cccc2c1Oc1nc(-c3ccc(F)cc3)[nH]c1C2C1c2cccc(OC)c2Oc2nc(-c3ccc(F)cc3)[nH]c21` (stereo not shown) [MC406, 2,2′-bis(4-fluorophenyl)-5,5′-dimethoxy-1,1,9,9′-tetrahydro-9,9′-bichromeno[2,3-]imidazoles], the IC50 is 0.17 µM in assay [2], 0.22 µM in assay [3] and 0.3 µM in assay [4]. Further, the “cell migration less than the control” value in assay [5] was determined as 20%.

As to `COc1cccc2c1Oc1nc(-c3ccc(Br)cc3)[nH]c1C2` [MC408, 2-(4-bromophenyl)-5-methoxy-3,9-dihydrochromeno[2,3-d]imidazoles], the IC50 in assay [2] stood at 1.85 µM; in assay [4], 1.6 µM. Also, in assay [5], the “cell migration less than the control” value is listed as 20%. Besides, the “effect on cell proliferation (BrdU)” value in assay [6] is recorded as “significant decrease in cell proliferation”.

On to `COc1cccc2c1Oc1nc(-c3ccc(F)cc3)[nH]c1C2` [MC409, 2-(4-fluorophenyl)-5-methoxy-3,9-dihydrochromeno[2,3-d]imidazoles], for which the half-inhibitory concentration (IC50) in assay [2] turned out to be 0.37 µM; in assay [3] it was 0.43 µM; in assay [4], 0.6 µM. In addition, the “decrease of percentage of cell migration relative to control” value in assay [5] (after 12 hours, IC50 and ½IC50, control 0.5% DMSO) is “about 40%”. Moreover, in assay [5], the “cell migration less than the control” value is “about 12%”.

As to `COc1cccc2c1Oc1nc(-c3ccc(O)cc3)[nH]c1C2` [MC413, 4-(5-methoxy-3,9-dihydrochromeno[2,3-d]imidazol-2-yl)phenol], the results for the “effect on cell proliferation (BrdU)” value in assay [6] and in assay [1] were “significant decrease in cell proliferation” and “decrease cell proliferation”, respectively.

In the case of `COc1cccc2c1Oc1nc(-c3ccc(Br)cc3)[nH]c1C2C1c2cccc(OC)c2Oc2nc(-c3ccc(Br)cc3)[nH]c21` (stereo not shown) [MC421, 2,2′-bis(4-bromophenyl)-5,5′-dimethoxy-1,1,9,9′-tetrahydro-9,9′-bichromeno[2,3-]imidazoles], the figures for the IC50 in assay [2], in assay [3] and in assay [4] were 0.034 µM, 0.079 µM and 0.2 µM, respectively. Also, the “cell migration less than the control” value in assay [5] came to 13%. The entries for the “effect on cell proliferation (BrdU)” value in assay [6] and in assay [1] were “significant decrease in cell proliferation” and “decrease cell proliferation”, respectively.
